Assay results from PubChem BioAssay (NCI).
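Each compound was tested at five concentrations against cells in 96-well plates for 48 hours. TGI denotes the concentration required for complete inhibition of growth.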

Experiments:
Assay in all cases: NCI tumour cell line growth inhibition, 48 h
[1] = tested on: NCI-H23 lung
[2] = tested on: SR leukemia
[3] = tested on: UACC-62 melanoma
[4] = tested on: NCI-H226 lung
[5] = tested on: HCT-15 colon
[6] = tested on: A549 NSCLC
[7] = tested on: HL-60(TB) leukemia
[8] = tested on: SK-MEL-5 melanoma
[9] = tested on: DMS 114 small cell lung
[10] = tested on: 786-0 renal
[11] = tested on: MALME-3M melanoma
[12] = tested on: TK-10 renal
[13] = tested on: NCI-H522 lung
[14] = tested on: SK-OV-3 ovarian
[15] = tested on: SW-620 colon
[16] = tested on: CAKI-1 renal
[17] = tested on: HCT-116 colon
[18] = tested on: UACC-257 melanoma
[19] = tested on: OVCAR-3 ovarian
[20] = tested on: LOX IMVI melanoma
[21] = tested on: ACHN renal
[22] = tested on: U251 CNS
[23] = tested on: M19-MEL melanoma
[24] = tested on: KM12 colon
[25] = tested on: OVCAR-4 ovarian
[26] = tested on: SNB-78 CNS
[27] = tested on: DMS 273 small cell lung
[28] = tested on: NCI-H460 lung
[29] = tested on: K-562 leukemia
[30] = tested on: SNB-75 CNS
[31] = tested on: OVCAR-8 ovarian
[32] = tested on: XF 498 CNS
[33] = tested on: SF-539 CNS
[34] = tested on: SK-MEL-2 melanoma
[35] = tested on: SF-268 CNS
[36] = tested on: MOLT-4 leukemia
[37] = tested on: CCRF-CEM leukemia
[38] = tested on: DLD-1 colon
[39] = tested on: KM20L2 colon
[40] = tested on: RXF 393 renal
[41] = tested on: SK-MEL-28 melanoma
[42] = tested on: OVCAR-5 ovarian
[43] = tested on: RPMI-8226 leukemia
[44] = tested on: SF-295 CNS
[45] = tested on: COLO 205 colon
[46] = tested on: HCC-2998 colon
[47] = tested on: HOP-18 NSCLC
[48] = tested on: LXFL 529 NSCLC
[49] = tested on: SNB-19 CNS
[50] = tested on: EKVX NSCLC
[51] = tested on: M14 melanoma
[52] = tested on: HOP-92 NSCLC
[53] = tested on: HOP-62 NSCLC
[54] = tested on: HT29 colon
[55] = tested on: UO-31 renal
[56] = tested on: SN12C renal
[57] = tested on: IGROV1 ovarian
[58] = tested on: A498 renal
[59] = tested on: RXF-631 renal

Cc1ccc(NCC(=O)N2CC(=O)Nc3ccccc32)cc1
TGI [1]: > 100 µM | TGI [2]: > 100 µM | TGI [3]: > 100 µM | TGI [4]: > 100 µM | TGI [5]: > 100 µM | TGI [6]: > 100 µM | TGI [7]: > 100 µM | TGI [8]: > 100 µM | TGI [9]: > 100 µM | TGI [10]: > 100 µM | TGI [11]: > 100 µM | TGI [12]: > 100 µM | TGI [13]: > 100 µM | TGI [14]: > 100 µM | TGI [15]: > 100 µM | TGI [16]: > 100 µM | TGI [17]: > 100 µM | TGI [18]: > 100 µM | TGI [19]: > 100 µM | TGI [20]: > 100 µM | TGI [21]: > 100 µM | TGI [22]: > 100 µM | TGI [23]: > 100 µM | TGI [24]: > 100 µM | TGI [25]: > 100 µM | TGI [26]: > 100 µM | TGI [27]: > 100 µM | TGI [28]: > 100 µM | TGI [29]: > 100 µM | TGI [30]: > 100 µM | TGI [31]: > 100 µM | TGI [32]: > 100 µM | TGI [33]: > 100 µM | TGI [34]: > 100 µM | TGI [35]: > 100 µM | TGI [36]: > 100 µM | TGI [37]: > 100 µM | TGI [38]: > 100 µM | TGI [39]: > 100 µM | TGI [40]: > 100 µM | TGI [41]: > 100 µM | TGI [42]: > 100 µM | TGI [43]: > 100 µM | TGI [44]: > 100 µM | TGI [45]: > 100 µM | TGI [46]: > 100 µM | TGI [47]: > 100 µM | TGI [48]: > 100 µM | TGI [49]: > 100 µM | TGI [50]: > 100 µM | TGI [51]: > 100 µM | TGI [52]: > 100 µM | TGI [53]: > 100 µM | TGI [54]: > 100 µM | TGI [55]: > 100 µM | TGI [56]: > 100 µM

N#Cc1cc([N+](=O)[O-])ccc1NC(=O)C(F)(F)F
TGI [1]: > 100 µM | TGI [2]: > 100 µM | TGI [3]: > 100 µM | TGI [4]: > 100 µM | TGI [5]: > 58.5 µM | TGI [6]: > 100 µM | TGI [7]: > 100 µM | TGI [8]: > 100 µM | TGI [9]: > 56.1 µM | TGI [10]: > 89.5 µM | TGI [11]: > 100 µM | TGI [12]: > 100 µM | TGI [13]: > 100 µM | TGI [14]: > 100 µM | TGI [15]: > 55.8 µM | TGI [16]: > 100 µM | TGI [17]: > 61.5 µM | TGI [18]: > 100 µM | TGI [19]: > 100 µM | TGI [20]: > 49.7 µM | TGI [21]: > 100 µM | TGI [22]: > 100 µM | TGI [23]: > 100 µM | TGI [57]: > 100 µM | TGI [24]: > 100 µM | TGI [25]: > 100 µM | TGI [26]: > 100 µM | TGI [27]: > 100 µM | TGI [28]: > 57.4 µM | TGI [58]: > 100 µM | TGI [29]: > 100 µM | TGI [30]: > 95.9 µM | TGI [31]: > 100 µM | TGI [32]: > 100 µM | TGI [33]: > 100 µM | TGI [34]: > 100 µM | TGI [35]: > 100 µM | TGI [36]: > 100 µM | TGI [37]: > 100 µM | TGI [38]: > 100 µM | TGI [39]: > 100 µM | TGI [40]: > 100 µM | TGI [41]: > 100 µM | TGI [42]: > 100 µM | TGI [43]: > 66.9 µM | TGI [44]: > 100 µM | TGI [45]: 44.6 µM | TGI [46]: > 100 µM | TGI [47]: > 100 µM | TGI [48]: > 100 µM | TGI [49]: > 100 µM | TGI [50]: > 100 µM | TGI [51]: > 100 µM | TGI [52]: > 100 µM | TGI [53]: > 100 µM | TGI [54]: > 67.6 µM | TGI [55]: > 100 µM | TGI [56]: > 100 µM

CN(C)CCC(CCN(C)C)=NOC(=O)c1ccccc1
TGI [1]: > 100 µM | TGI [3]: > 100 µM | TGI [5]: > 100 µM | TGI [6]: > 100 µM | TGI [7]: > 100 µM | TGI [8]: > 100 µM | TGI [59]: > 100 µM | TGI [9]: > 100 µM | TGI [10]: > 100 µM | TGI [11]: > 100 µM | TGI [12]: > 100 µM | TGI [13]: > 100 µM | TGI [14]: > 100 µM | TGI [15]: > 100 µM | TGI [16]: > 100 µM | TGI [17]: > 100 µM | TGI [18]: > 100 µM | TGI [19]: > 100 µM | TGI [21]: > 100 µM | TGI [22]: > 100 µM | TGI [23]: > 100 µM | TGI [57]: > 100 µM | TGI [24]: > 100 µM | TGI [25]: > 100 µM | TGI [27]: > 100 µM | TGI [28]: > 100 µM | TGI [58]: > 100 µM | TGI [29]: > 100 µM | TGI [30]: > 100 µM | TGI [31]: > 100 µM | TGI [32]: > 100 µM | TGI [33]: > 100 µM | TGI [34]: > 100 µM | TGI [35]: > 100 µM | TGI [36]: > 100 µM | TGI [37]: > 100 µM | TGI [38]: > 100 µM | TGI [39]: > 100 µM | TGI [40]: > 100 µM | TGI [41]: > 100 µM | TGI [43]: > 100 µM | TGI [44]: > 100 µM | TGI [45]: > 100 µM | TGI [46]: > 100 µM | TGI [47]: > 100 µM | TGI [48]: > 100 µM | TGI [49]: > 100 µM | TGI [50]: > 100 µM | TGI [51]: > 100 µM | TGI [53]: > 100 µM | TGI [54]: > 100 µM | TGI [55]: > 100 µM | TGI [56]: > 100 µM

CC1(c2cccc(N)c2)C2C(=O)NC(=O)C1C(=O)NC2=O (configuration not stated)
TGI [1]: 48.5 µM | TGI [3]: > 100 µM | TGI [4]: 83.8 µM | TGI [5]: > 100 µM | TGI [6]: > 100 µM | TGI [7]: 43.2 µM | TGI [8]: 37 µM | TGI [59]: > 100 µM | TGI [9]: 96.9 µM | TGI [10]: > 100 µM | TGI [11]: 95 µM | TGI [12]: > 100 µM | TGI [13]: 46.3 µM | TGI [14]: 91.5 µM | TGI [15]: > 100 µM | TGI [16]: > 100 µM | TGI [18]: > 100 µM | TGI [19]: 57.1 µM | TGI [20]: 81.1 µM | TGI [21]: 78.5 µM | TGI [23]: > 100 µM | TGI [57]: > 100 µM | TGI [24]: > 100 µM | TGI [25]: > 100 µM | TGI [26]: > 100 µM | TGI [27]: 73.3 µM | TGI [28]: > 100 µM | TGI [58]: 99.6 µM | TGI [29]: 67.3 µM | TGI [30]: 73.2 µM | TGI [31]: > 100 µM | TGI [32]: 64.4 µM | TGI [33]: 81.7 µM | TGI [34]: 57.7 µM | TGI [35]: > 100 µM | TGI [36]: 47.6 µM | TGI [37]: 62.5 µM | TGI [38]: > 100 µM | TGI [39]: > 100 µM | TGI [40]: 71.2 µM | TGI [41]: > 100 µM | TGI [42]: > 100 µM | TGI [43]: 40.3 µM | TGI [44]: 58.8 µM | TGI [45]: 50.2 µM | TGI [46]: > 100 µM | TGI [48]: > 100 µM | TGI [49]: > 100 µM | TGI [50]: > 100 µM | TGI [51]: > 100 µM | TGI [52]: 57.3 µM | TGI [53]: > 100 µM | TGI [54]: > 100 µM | TGI [55]: 67.8 µM | TGI [56]: 97.7 µM
